Source: patent publication US12365674B2, “Inhibitors of histone deacetylase useful for the treatment or prevention of HIV infection” (Merck Sharp & Dohme LLC, priority 2019, dated 2025)

What follows are molecules tested against T1, human HDAC8 (Homo sapiens, UniProt Q9BY41) (assay: Human HDAC enzyme inhibitor Fluor-de-Lys assay, HDAC8). Settings: 1.3 nM enzyme, 200 μM substrate BML-KI178, 3 h pre-incubation, 60 min reaction; read-out: HDAC8_IC50.
T1 construct: purchased Enzo Life Sciences BML-SE145-0100
T1 sequence (Q9BY41 1-377): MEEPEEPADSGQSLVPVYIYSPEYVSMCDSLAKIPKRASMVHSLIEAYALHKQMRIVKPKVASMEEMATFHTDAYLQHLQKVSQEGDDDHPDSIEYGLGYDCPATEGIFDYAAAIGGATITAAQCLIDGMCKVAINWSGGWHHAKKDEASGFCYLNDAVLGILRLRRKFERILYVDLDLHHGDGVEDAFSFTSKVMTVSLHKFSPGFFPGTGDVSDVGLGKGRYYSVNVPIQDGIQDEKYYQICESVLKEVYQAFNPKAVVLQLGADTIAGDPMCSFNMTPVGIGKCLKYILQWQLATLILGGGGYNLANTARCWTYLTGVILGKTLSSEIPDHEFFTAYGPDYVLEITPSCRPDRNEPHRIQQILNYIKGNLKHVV
Format: biochemical
Excerpt: Recombinant human HDAC8 (catalog number BML-SE145-0100) and HDAC10 (catalog number BML-SE559-0050) enzymes, HDAC substrates BML-KI104 and BML-KI178, and HDAC developer solutions BML-KI105 and BML-KI176 were purchased from Enzo Life Sciences (Farmingdale, NY). Recombinant human HDAC5 and HDAC11 were purchased from BPS Bioscience (San Diego, CA)(catalog numbers 50045 and 50021). Substrate Boc-Lys(TFA)-AMC was obtained from Bachem (Bupendorf, Switzerland) (catalog number 1-1985). HDAC inhibitor suberoylanilide hydroxamic acid (SAHA) was obtained from Indofine (Hillsborough Township, NJ) and trichostatin A (TSA) was obtained from Sigma-Aldrich (St. Louis, MO). […] HEPES pH 8.0 was obtained from Boston BioProducts (Ashland, MA), Tween-20 from Fisher Scientific (Hampton, NH)(catalog number BP337), TCEP from Calbiochem and 7.5% bovine serum albumin (BSA) from Life Technologies (Carlsbad, CA) (catalog number 15260037). 384-well, black assay plates were obtained from Corning (Corning, NY) (catalog number 3575).
The histone deacetylase activities of HDAC1, HDAC2, HDAC3, HDAC6, and HDAC8 were measured in modified Fluor-de-Lys assays in 384-well format. In this assay, HDAC enzymes are initially incubated with an ε-acetyl (or -trifluoroacetyl)-L-lysine-containing substrate with a C-terminal amide having aminomethylcoumarin as the amine component. HDACs cleave the ε-acetyl group, rendering the resulting product susceptible to AMC cleavage by trypsin. The released AMC is then detected by its fluorescence.
The HDAC 1, 2 assays employed buffer A, which contained 20 mM HEPES, pH 8.0, 1 mM MgCl2, 137 mM NaCl, 2.7 mM KCl, 0.05% BSA. The HDAC3/SMRT assay employed buffer B, consisting of 20 mM HEPES, pH 8.0, 1 mM MgCl2, 50 mM NaCl, 2.7 mM KCl, 0.05% BSA, 0.005% Tween 20, and 10 μM IP4. The HDAC6 assay employed buffer C, consisting of 20 mM HEPES, pH 8.0, 1 mM MgCl2, 137 mM NaCl, 2.7 mM KCl, 0.5 mM TCEP (Calbiochem) and 0.05% BSA. The HDAC8 assay employed buffer D, consisting of 20 mM HEPES, pH 8.0, 1 mM MgCl2, 100 mM NaCl, 20 mM KCl, 0.1% n-octyl-β-D-glucoside (Anatrace, Maumee, OH) and 0.05% BSA. All steps were performed at room temperature (23° C.). The assay was performed by pre-incubating serial dilutions of test compounds with the target HDAC prior to initiation with substrate. Each compound was titrated in a 10-point dose response, using a 1:3 fold dilution scheme, with 0.15 ul of solution added by ECHO555 to the plate, followed by the addition of 20 μl of the appropriate HDAC isoform diluted in appropriate assay buffer. […] Final conditions used for each assay were: 1. HDAC 1, 0.3 nM total enzyme, 20 μM substrate BML-K1104; 2. HDAC 2, 1.5 nM total enzyme, 40 μM substrate BML-K1104; 3. HDAC 3/SMRT, 0.3 nM total enzyme, 20 μM substrate BML-K1104; 4. HDAC 6, 1.3 nM total enzyme, 2.5 μM substrate BML-K1104; 5. HDAC 8, 1.3 nM total enzyme, 200 μM substrate BML-K1178; the final high dose of test compound was 30 μM. For potent compounds, 900 nM was used as the final high dose. The reactions were stopped and developed by addition of 30 ul of HDAC developer solution containing a saturating level of HDAC inhibitor as follows: 1.
Molecule `COc1nc2ccccc2cc1-c1cnc([C@H](COCCCC(=O)c2ncco2)NC(=O)C23CCN(CC2)CC3)[nH]1` [Compound 12, N-{(1R)-1-[5-(2-methoxyquinolin-3-yl)-1H-imidazol-2-yl]-2-[4-(1,3-oxazol-2-yl)-4-oxobutoxy]ethyl}-1-azabicyclo[2.2.2]octane-4-carboxamide] has an IC50 of 5.55 µM.
`CN1CC(C(=O)N[C@@H](COCCCC(=O)c2ccon2)c2[nH]c(-c3ccc(F)cc3)nc2Cl)C1` [Compound 16, N-[(1R)-1-[4-chloro-2-(4-fluorophenyl)-1H-imidazol-5-yl]-2-(4-isoxazol-3-yl-4-oxobutoxy)ethyl]-1-methylazetidine-3-carboxamide] was tested, and the IC50 was > 0.9 µM.
`CCC(=O)CCCOC[C@H](NC(=O)[C@H]1CC12CCN(CC)CC2)c1ncc(-c2cc3ccccc3nc2OC)[nH]1` [Compound 7, (1S)-6-ethyl-N-{(1R)-1-[5-(2-methoxyquinolin-3-yl)-1H-imidazol-2-yl]-2-[(4-oxohexyl)oxy]ethyl}-6-azaspiro[2.5]octane-1-carboxamide] was tested, and the IC50 was > 45 µM.
With `CCC(=O)CCCOC[C@H](NC(=O)C12CCN(CC1)CC2)c1ncc(-c2cc3ccccc3nc2OC)[nH]1` [Compound 6, N-{(1R)-1-[5-(2-methoxyquinolin-3-yl)-1H-imidazol-2-yl]-2-[(4-oxohexyl)oxy]ethyl}-1-azabicyclo[2.2.2]octane-4-carboxamide] the IC50 was > 45 µM.
`COc1nc2ccccc2cc1-c1cnc([C@H](COCCCC(=O)c2ccon2)NC(=O)CN(C)C)[nH]1` [Compound 14, N-{(1R)-2-(4-isoxazol-3-yl-4-oxobutoxy)-1-[5-(2-methoxyquinolin-3-yl)-1H-imidazol-2-yl]ethyl}-N~2~,N~2~- dimethylglycinamide] showed an IC50 of 1.76 µM.
`COc1nc2ccccc2cc1-c1cnc([C@H](COCCCC(=O)c2ncco2)NC(=O)c2cncs2)[nH]1` [Compound 10, N-{(1R)-1-[5-(2-methoxyquinolin-3-yl)-1H-imidazol-2-yl]-2-[4-(1,3-oxazol-2-yl)-4-oxobutoxy]ethyl}-1,3-thiazole-5-carboxamide] gave an IC50 of 1.38 µM.
In the case of `COc1cc2nc(C)ccc2cc1-c1cnc([C@H](COCCCC(=O)c2cc(C)on2)NC(=O)[C@H]2CC23CCN(C)CC3)[nH]1` [Compound 20, (1S)-N-{(1R)-1-[5-(7-methoxy-2-methylquinolin-6-yl)-1H-imidazol-2-yl]-2-[4-(5-methylisoxazol-3-yl)-4-oxobutoxy]ethyl}-6-methyl-6-azaspiro[2.5]octane-1-carboxamide], the IC50 is reported as > 0.9 µM.
For `CNC(=O)C(=O)CCCOC[C@H](NC(=O)c1cncs1)c1ncc(-c2cc3ccccc3nc2OC)[nH]1` [Compound 8, N-[(1R)-1-[5-(2-methoxyquinolin-3-yl)-1H-imidazol-2-yl]-2-{[5-(methylamino)-4,5-dioxopentyl]oxy}ethyl]-1,3-thiazole-5-carboxamide], the IC50 was 3.86 µM.
`COc1nc2ccccc2cc1-c1cnc([C@H](COCCCC(=O)c2ncco2)NC(=O)[C@H]2CC23CCN(C)CC3)[nH]1` [Compound 11, (1S)-N-{(1R)-1-[5-(2-methoxyquinolin-3-yl)-1H-imidazol-2-yl]-2-[4-(1,3-oxazol-2-yl)-4-oxobutoxy]ethyl}-6-methyl-6-azaspiro[2.5]octane-1-carboxamide] showed an IC50 of 7.78 µM.
For `CNC(=O)C(=O)CCCOC[C@H](NC(=O)C12CCN(CC1)CC2)c1ncc(-c2cc3ccccc3nc2OC)[nH]1` [Compound 9, N-[(1R)-1-[5-(2-methoxyquinolin-3-yl)-1H-imidazol-2-yl]-2-{[5-(methylamino)-4,5-dioxopentyl]oxy}ethyl]-1-azabicyclo[2.2.2]octane-4-carboxamide], the IC50 was 3.37 µM.
`CN(C)CC(=O)N[C@@H](COCCCC(=O)c1ccon1)c1[nH]c(-c2ccc(F)cc2)nc1Cl` [Compound 17, N-[(1R)-1-[4-chloro-2-(4-fluorophenyl)-1H-imidazol-5-yl]-2-(4-isoxazol-3-yl-4-oxobutoxy)ethyl]-N~2~,N~2~- dimethylglycinamide] was tested, and the IC50 was > 0.9 µM.
Molecule `COc1nc2ccccc2cc1-c1cnc([C@H](COCCCC(=O)c2ncco2)NC(=O)CN(C)C)[nH]1` [Compound 13, N-{(1R)-1-[5-(2-methoxyquinolin-3-yl)-1H-imidazol-2-yl]-2-[4-(1,3-oxazol-2-yl)-4-oxobutoxy]ethyl}-N~2~,N~2~- dimethylglycinamide] has an IC50 of 17 µM.
With `COc1cc2nc(C)ccc2cc1-c1cnc([C@H](COCCCC(=O)c2cc(C)on2)NC(=O)C2CN(C)C2)[nH]1` [Compound 19, N-{(1R)-1-[5-(7-methoxy-2-methylquinolin-6-yl)-1H-imidazol-2-yl]-2-[4-(5-methylisoxazol-3-yl)-4-oxobutoxy]ethyl}-1-methylazetidine-3-carboxamide] the IC50 was > 0.9 µM.
For `CN1CC(C(=O)N[C@@H](COCCCC(=O)c2ccon2)c2ncc(-c3ccccc3F)[nH]2)C1` [Compound 15, N-[(1R)-1-[5-(2-fluorophenyl)-1H-imidazol-2-yl]-2-(4-isoxazol-3-yl-4-oxobutoxy)ethyl]-1-methylazetidine-3-carboxamide], the IC50 was > 0.9 µM.
With `CCC(=O)CCCOC[C@H](NC(=O)c1cncs1)c1ncc(-c2cc3ccccc3nc2OC)[nH]1` [Compound 5, N-{(1R)-1-[5-(2-methoxyquinolin-3-yl)-1H-imidazol-2-yl]-2-[(4-oxohexyl)oxy]ethyl}-1,3-thiazole-5-carboxamide] the IC50 was 2.72 µM.
In the case of `Cc1ccc2cc(-c3cnc([C@H](CSCCCC(=O)c4ncco4)NC(=O)[C@H]4CC45CCN(C)CC5)[nH]3)ccc2n1` [Compound 21, (1S)-6-methyl-N-[(1R)-1-[5-(2-methylquinolin-6-yl)-1H-imidazol-2-yl]-2-{[4-(1,3-oxazol-2-yl)-4-oxobutyl]sulfanyl}ethyl]-6-azaspiro[2.5]octane-1-carboxamide], the IC50 is reported as 1.05 µM.
`CN1CCC2(CC1)C[C@@H]2C(=O)N[C@@H](COCCCC(=O)c1ccon1)c1[nH]c(-c2ccc(F)cc2)nc1Cl` [Compound 18, (1S)-N-[(1R)-1-[4-chloro-2-(4-fluorophenyl)-1H-imidazol-5-yl]-2-(4-isoxazol-3-yl-4-oxobutoxy)ethyl]-6-methyl-6-azaspiro[2.5]octane-1-carboxamide] was tested, and the IC50 was > 0.9 µM.
For `N[C@@H](COCCCC(=O)c1ccon1)c1ncc(-c2ccccc2F)[nH]1` [Compound 2, (R)-4-(2-amino-2-(5-(2-fluorophenyl)-1H-imidazol-2-yl)ethoxy)-1-(isoxazol-3-yl)butan-1-one], the IC50 was > 0.9 µM.
